Experimental data published in patent publication US7037931B2, “CCK-1 receptor modulators” (Janssen Pharmaceutica N.V., priority 2002, dated 2006).

melting point [°C]	Structure (SMILES)
39.5 to 43.2	CON(C)C(=O)c1ccc(Cl)c(Cl)c1 [Example 511, 3,4-Dichloro-N-methoxy-N-methyl-benzamide]
280 to 285	COc1ccc(-n2nc(C[C@H](C(=O)[O-])c3cccc(C)c3)cc2-c2ccc(Cl)c(Cl)c2)cc1.[Na+] (stereo in doubt) [Example 505]
295.5 to 297.5	COc1ccc(-n2nc(C[C@H](C(=O)[O-])c3cccc(C)c3)cc2-c2ccc(Cl)c(Cl)c2)cc1.[Na+] [Example 1, (S)-Sodium; 3-[5-(3,4-dichloro-phenyl)-1-(4-methoxy-phenyl)-1H-pyrazol-3-yl]-2-m-tolyl-propionate]
